Results on 13 molecules are retold here after ChEMBL document CHEMBL3244348, “Antiallergic agents. Xanthone-2,7-dicarboxylic acid derivatives” (1977).

Molecules are shown by their SMILES.

Broadly, the inhibition in vivo is the drop in the measured response relative to a control, in per cent.

This test relates to Rattus norvegicus. Put plainly: Antiallergic activity in homocytotropic antiovalbumin antiserum-injected Sprague-Dawley rat assessed as inhibition of passive cutaneous anaphylaxis wheal reaction at 100 mg/kg, po administered 1 hr prior to ovalbumin challenge measured 20 mins after antigen challenge. Type of test: functional.

Take `O=C(O)c1ccc2oc3ccc(C(=O)O)cc3c(=O)c2c1`: the inhibition in vivo at 100 mg/kg is 1%.
The same measure for `CCOC(=O)c1ccc2oc3ccc(C(=O)OCC)cc3c(=O)c2c1`: 8%; for `NC(=O)c1ccc2oc3ccc(C(N)=O)cc3c(=O)c2c1`: 34%.
With `CNC(=O)c1ccc2oc3ccc(C(=O)NC)cc3c(=O)c2c1`, the inhibition in vivo at 100 mg/kg stood at 19%.
Turning to `CCCNC(=O)c1ccc2oc3ccc(C(=O)NCCC)cc3c(=O)c2c1`, the inhibition in vivo at 100 mg/kg came to 19%.
The same measure for `COCCOCCCNC(=O)c1ccc2oc3ccc(C(=O)NCCCOCCOC)cc3c(=O)c2c1`: 19%.
In the case of `CN(C)C(=O)c1ccc2oc3ccc(C(=O)N(C)C)cc3c(=O)c2c1`, the inhibition in vivo at 100 mg/kg was found to be 69%.
Regarding `CCN(CC)C(=O)c1ccc2oc3ccc(C(=O)N(CC)CC)cc3c(=O)c2c1`, the inhibition in vivo at 100 mg/kg amounted to 53%.
The same measure for `O=C(c1ccc2oc3ccc(C(=O)N(C4CCCCC4)C4CCCCC4)cc3c(=O)c2c1)N(C1CCCCC1)C1CCCCC1`: 42%.
The same measure for `C=CCN(CC=C)C(=O)c1ccc2oc3ccc(C(=O)N(CC=C)CC=C)cc3c(=O)c2c1`: 51%; for `O=C(c1ccc2oc3ccc(C(=O)N4CCCCC4)cc3c(=O)c2c1)N1CCCCC1`: 57%.
Take `O=C(c1ccc2oc3ccc(C(=O)N4CC5CCC(CC5)C4)cc3c(=O)c2c1)N1CC2CCC(CC2)C1`: the inhibition in vivo at 100 mg/kg stood at 48%.
As for `O=C(c1ccc2oc3ccc(C(=O)N4CCOCC4)cc3c(=O)c2c1)N1CCOCC1`, the inhibition in vivo at 100 mg/kg turned out to be 42%.
